Experimental data taken from US6235493A, “Amino acid substituted-cresyl violet, synthetic fluorogenic substrates for the analysis of agents in individual in vivo cells or tissue” (priority 1998, dated 2001).
“And” between values parts separate entries of the source, which are not always exact repeats. Identical values can stand only once. Starred links: 1 amine or outer side, 2 acyl side, 3 side chain; linkers in the order of their positions; H or OH if unused. Non-standard residues stand in square brackets, D forms with d. Residues, ends and D or L forms follow the SMILES beside them. *: point of attachment. hPhe = N[C@@H](CCc1ccccc1)C(=O)O; Morpholide = C1CN(*)CCO1; CO = O=C([*:1])[*:2]; CH2F = FC*

Legend:
[1] = system: CC531 colon cancer cells; assay: Colon cancer (CC531) metastasis in rat liver: number and volume of tumors per lobe; format: in vivo
Description: Induction of Metastasis in Rat Liver
Colon carcinoma tumors were induced in rat liver by injection of a single cell suspension containing 1×10^6 CC531 cells into the portal vein of 32 mature male WAG-Rij rats, weighing 180-200 g (Broekman, Someren, The Netherlands) as described previously in detail (46,51,52).
Treatment of Rats with FMK
(§1) Sixteen rats were treated orally with 20 mg FMK per kg body weight dissolved in PBS and 5% dimethylformamide daily for 14 days starting one week before administration of the CC531 cells and continuing until sacrifice. Oral administration was performed directly into the stomach with a plastic tube attached to a syringe. Dosage and type of treatment were selected on the basis of previous experiments in which rats were treated with FMK-related inhibitors of cathepsins (34,40,53). The other 16 animals were treated similarly with PBS and dimethylformamide only. The LD50 of this type of FMK is at least 20-fold higher than the dosages used in the present experiment (40,53).
Preparation of Cryostat Sections of Liver
Seven days after administration of CC531 cells, the animals were weighed and sacrificed with an overdose of sodium pentobarbital. Livers were removed immediately, the individual lobes were weighed and dissected and cut into small pieces (up to 5 mm thick) according to a rigid dissection scheme. The left lateral lobe was cut into eight pieces, the median lobe into nine pieces, the right lateral and caudate lobes into four pieces. Tissue fragments were frozen in liquid nitrogen and the material was kept at -80° C. until further use. Twenty-one sites were randomly selected in all lobes of each liver before the experiments were carried out. From these sites, sections (8 μm thick) were cut on a motor-drivencryostat with a rotary retracting microtome (Bright, Huntingdon, UK) at a constant but low speed and a cabinet temperature of -25° C. Sections were picked up onto clean glass slides and stored in the cryostat cabinet until used. These methods have been described in detail in Reference 54.
Staining of Tissue Sections
To facilitate recognition of cancer cells, cryostat sections were stained either with the periodic acid Schiff (PAS) reaction (54) or immunohistochemically using the lectin Ulex europaeus agglutinin I (Dako, Glostrup, Denmark), a selective marker of CC531 cells in rat (51,55). Immunocompetenet cells, endothelial cells and components of the extracellular matrix were localized with a panel of antibodies (Table 1) as described in detail by Griffini et al. (52). Control incubations were performed by replacing the first antibodies by non-immune sera in the same dilutions.
For calculation of the number and percentage volume of tumors in each liver lobe, the 8 micron thick sections were analyzed morphometrically using a Quantimet Q500 (Leica, Cambridge, UK) after staining with the lectin Ulex for the detection of cancer cells. The number of tumors was expressed per unit volume of liver tissue ±standard error of the mean or as ratio of the number of tumors in FMK-treated rats and those in untreated rats (×100). The percentage volume of tumors was expressed as the ratio of the volume of tumors and the total volume of the liver tissue including tumors ±standard error of the mean. Statistical analysis was performed with the 2-tailed Mann-Whitney test using the software program JPM (SAS Institute, Cary, N.C.).
The number of tumors is expressed per unit volume of liver tissue ± SEM or as the ratio of the number of tumors in treated rats compared with untreated rats (×100; %) as determined morphometrically in 8 μm thick cryostat sections stained with the lectin Ulex europaeus agglutinin I. Differences in number of tumors in left lateral and median lobes but not in right lateral and caudate lobes between treated and untreated animals were significant (P=0.006 and P=0.1, respectively). […]

[2] = Body weight and liver weight of FMK-treated rats; format: in vivo, rat; conditions: 20 mg FMK/kg daily oral 14 days
Description: as §1
Seven days after administration of CC531 cells, the animals were weighed and sacrificed with an overdose of sodium pentobarbital. Livers were removed immediately, the individual lobes were weighed and dissected and cut into small pieces (up to 5 mm thick) according to a rigid dissection scheme. The left lateral lobe was cut into eight pieces, the median lobe into nine pieces, the right lateral and caudate lobes into four pieces. […]
Significant differences between the caudate lobe and the other liver lobes with respect to the endothelial compartment or distribution patterns of extracellular matrix compounds (see Table 1 for specification of parameters investigated) could not be detected either.

[3] = cited from earlier work
[4] = molecular target: cathepsin B (Rattus norvegicus, UniProt P00787); assay: Cathepsin B activity in homogenates of liver lobes of rats after oral FMK treatment; format: in vivo; conditions: 20 mg FMK per kg body weight daily, 14 days, all four lobes
Description: as §1
Cathepsin B activity was determined in homogenates obtained from each individual liver lobe of all rats according to Cox and Eley (56) with the use of the fluorogenic substrate CBZ-Ala-Arg-Arg-7-amino-4-trifluoromethylcoumarin (Enzyme Systems Products, Dublin, Calif.).
Whether or not the two weeks of oral treatment with the inhibitor had the same effect on cathepsin B activity in all liver lobes was determined.

[5] = cited from earlier work; remark: listed apart in the source
[6] = 20 mg FMK/kg daily oral 14 days
[7] = +FMK, 20 mg/kg daily oral 14 days, ± SEM, n = 16
[8] = weighted by relative lobe wet weight

Chain of cathepsin B (P00787 80-333): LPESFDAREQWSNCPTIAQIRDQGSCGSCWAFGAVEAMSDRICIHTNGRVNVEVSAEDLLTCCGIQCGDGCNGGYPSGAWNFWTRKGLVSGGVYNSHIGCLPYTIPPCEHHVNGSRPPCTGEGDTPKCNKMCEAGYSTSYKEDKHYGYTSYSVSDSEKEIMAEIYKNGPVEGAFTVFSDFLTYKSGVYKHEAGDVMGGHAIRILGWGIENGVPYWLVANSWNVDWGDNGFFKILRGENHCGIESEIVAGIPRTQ

Structure (SMILES): O=C(CF)[C@H](CCc1ccccc1)NC(=O)[C@H](Cc1ccccc1)NC(=O)N1CCOCC1 [FMK, Mu-Phe-homoPhe-fluoro-methylketone] ({Morpholide-CO}-Phe-[hPhe]-CH2F)
- ratio of number of tumors in treated vs untreated rats (×100), caudate lobe [1, 6]: 278%
- ratio of number of tumors in treated vs untreated rats (×100), left lateral lobe [1, 6]: 24%
- ratio of number of tumors in treated vs untreated rats (×100), median lobe [1, 6]: 24%
- ratio of number of tumors in treated vs untreated rats (×100), right lateral lobe [1, 6]: 91%
- ratio of percentage volumes in treated and untreated rats (×100), caudate lobe [1, 6]: 283%
- ratio of percentage volumes in treated and untreated rats (×100), left lateral lobe [1, 6]: 17%
- ratio of percentage volumes in treated and untreated rats (×100), median lobe [1, 6]: 3%
- ratio of percentage volumes in treated and untreated rats (×100), right lateral lobe [1, 6]: 35%
- average size of tumors in large lobes, treated relative to untreated ([1]; 20 mg FMK/kg per day): 40%
- effect on number of tumors in the caudate lobe ([1]; 20 mg FMK/kg per day): increased rather than decreased, although the difference was not significant
- effect on size of tumors in the caudate lobe ([1]; 20 mg FMK/kg per day): not affected
- number of tumors per unit volume in caudate lobe vs other lobes in treated rats ([1]; 20 mg FMK/kg per day): 20 fold
- reduction of total volume of tumors in the large lobes (average) ([1]; 20 mg FMK/kg per day): 80%
- reduction of number of tumors in the large lobes (average) ([1]; 20 mg FMK/kg per day, one week before until one week after cells): 60%
- number of tumors, caudate lobe [1, 7]: 14.2 ± 7.5 per unit volume of liver tissu
- number of tumors, left lateral lobe [1, 7]: 0.5 ± 0.2 per unit volume of liver tissu
- number of tumors, median lobe [1, 7]: 0.4 ± 0.2 per unit volume of liver tissu
- number of tumors, right lateral lobe [1, 7]: 1.0 ± 0.4 per unit volume of liver tissu
- percentage volume of tumors, caudate lobe [1, 7]: 49.8 ± 38.5%
- percentage volume of tumors, left lateral lobe [1, 7]: 1.4 ± 0.5%
- percentage volume of tumors, median lobe [1, 7]: 0.3 ± 0.6%
- percentage volume of tumors, right lateral lobe [1, 7]: 1.1 ± 0.2%
- effect on number or size of metastases, caudate lobe ([1]; in vivo treatment with FMK): does not reduce number or size of metastases
- reduction of mean number of tumors in the entire liver [1, 8]: 35%
- reduction of mean volume of tumors in the entire liver [1, 8]: 57%
- effect on body weight, total liver weight or weight of individual lobes [2]: did not affect body weight, total liver weight or the weight of the individual lobes
- toxicity [3]: non-toxic
- LD50 relative to the dosages used (20 mg/kg) ([3]; this type of FMK): at least 20 fold
- inhibition of cathepsin B activity in liver lobes [4]: ~50% and 51±14%
- water solubility [5]: water-soluble
